Reference: patent US20240238426A1, “PROTEIN ACYLATION MODULATION BY HETEROBIFUNCTIONAL MOLECULES” (THE SCRIPPS RESEARCH INSTITUTE, priority 2021, published 2024)

Key:
Type in all cases: cell-based, Human
p21 = experiment: Immunoblot of p21 expression in p53 H1299 cells without the FKBP12^F36V tag; conditions: indicated doses, 8 hr, FIG. 7D
Experimental: (§1) Immunoblotting: Cells were harvested in cold DPBS by scraping and washed with cold DPBS twice. Cell pellets were resuspended in DPBS supplemented with 5 mM sodium butyrate, 20 mM Nicotinamide, and 1X Halt Protease Inhibitor Cocktail and lysed by sonication (15 ms on, 40 ms off, 15% amplitude, 1s total on x 3). Protein concentration was determined using DC Protein Assay (Bio-Rad) and absorbance read using a CLARIOstar plate reader following manufacturer's instructions. Samples with equal protein content were boiled in 4X SDS gel loading buffer for 10 min. Proteins were separated by 10%, 12.5%, or 15% SDS-polyacrylamide gel electrophoresis and transferred to PVDF membranes using Trans-Blot Turbo RTA Mini […] LF PVDF Transfer Kit (Bio-Rad). Membranes were incubated for 1 h at room temperature with blocking buffer, followed by incubating overnight at 4° C. with primary antibodies. After washing in TBST, the secondary antibodies were incubated with the membranes at room temperature for 1 h. The membranes were washed with TBST for three times and visualized on a Bio-Rad ChemiDoc MP Imaging System with Clarity Max Western ECL substrate (Bio-Rad) or SuperSignal West Femto Chemiluminescent substrate proprietary luminol and peroxide solution kit (Thermo Scientific Pierce).

TP53 target genes = experiment: RNA-seq analysis of H1299 wt cells; conditions: 3 μM AceTAG-1, FIG. 7F
[1] = tested on: p300/CBP substrates, including c-Myc and STAT3; experiment: Immunoblot of acetylation of other p300/CBP substrates in HeLa cells; conditions: increasing concentration
Experimental: as §1

[2] = tested on: p21 (CDKNIA), PUMA, MDM2, and GLS2; experiment: Immunoblot of p53 target gene expression in FKBP12^F36V-p53 H1299 cells
Experimental: as §1

CC[C@H](C(=O)N1CCCC[C@H]1C(=O)O[C@H](CCc1ccc(OC)c(OC)c1)c1cccc(OCC(=O)NCCOCCOCCC(=O)NCCOc2ccc(CCc3nc4cc(-c5c(C)noc5C)ccc4n3CCN3CCOCC3)cc2)c1)c1cc(OC)c(OC)c(OC)c1 [AceTAG-1, (R)-3-(3,4-dimethoxyphenyl)-1-(3-((15-(4-(2-(5-(3,5-dimethylisoxazol-4-yl)-1-(2-morpholinoethyl)-1H-benzo[d]imidazol-2-yl)ethyl)phenoxy)-2,12-dioxo-6,9-dioxa-3,13-diazapentadecyl)oxy)phenyl)propyl (S)-1-((S)-2-(3,4,5-trimethoxyphenyl)butanoyl)piperidine-2-carboxylate]
p21 induction in H1299 cells expressing p53 without the FKBP12^F36V tag (p21): not observed | changes of TP53 target genes in H1299 wt cells (TP53 target genes): minimal changes | acetylation of c-Myc and STAT3 ([1]; FIG. 5B): no observable acetylation changes | broader acetylation perturbation (acetylated lysine immunoblot) ([1]; FIG. 5C): no observable acetylation changes | p21 expression level at higher concentration ([2]; FIGS. 7A and 7B): reflected the ‘hook effect’ | p21 expression ([2]; indicated doses, 8 hr and 24 hr exposure, FIGS. 7A and 7B): strong dose-dependent expression | expression of PUMA, MDM2, and GLS2 ([2]; indicated doses, FIG. 7A): insignificant effects
